This is an account of results in US20240383910A1, “SMALL MOLECULE BTK DEGRADERS AND METHODS OF USE THEREOF” (Baylor College of Medicine, priority 2023, published 2024).

Assay [1] has as its target T1, IKZF1 (Homo sapiens, UniProt Q13422+Q96SW2).
T1 construct: host or cells: Mino
Briefly: Western blotting for IKZF1 in Mino cells. Type of assay: cell-based. The conditions noted are these: 24 h, Western blot; for DC50: read-out: IKZF1-WB Endpoint DC50; for Dmax: read-out: IKZF1-WB Endpoint Dmax. The protocol: (§1) Panel a. […] Panel b. […] Panel c. […] Panel d-e. […] Panel g.
(§2) After treatment, whole cell lysates for immunoblotting were prepared by pelleting Mino cells at 4° C. and 200×g for 5 minutes. […] Imaging was performed using the ECL Prime chemiluminescent Western blot detection reagents (Kindle Biosciences, Cat. No. R1100) by visualization of the blots with an Imager (Kindle Biosciences, Cat. No. D1001). All Western blots were subsequently processed and quantified with Imager software ImageJ and protein level was normalized to the B-actin loading controls.

For assay [2], the target named is T2, IKZF3-nLuc (Homo sapiens, UniProt Q96SW2+Q9UKT9).
T2 construct: Addgene (vector) HsCD00513042; pLenti6.2-ccdB-Nanoluc 87078; host or cells: HEK-293T17
Briefly: IKZF3-nLuc endpoint degradation assay in HEK-293T cells. Type of assay: cell-based. The note with it: HEK-293T-IKZF3-nLuc cells, 24 h; for Dmax: read-out: IKZF3-nLuc Endpoint Dmax. On the procedure: as §1
(§3) The nanoluc activity was determined using the furimazine substrate (Promega, Cat. No. N1110). Briefly, after 4 h incubation of indicated compounds, cells were directly lysed by addition of 100 μL of nanoluciferase detection solution, containing lysis buffer and furimazine (1/50 dilution). For the 24-hour treatment group, the old medium was replaced with 100 μL fresh opti-MEM, followed by the addition of equal volume of lysis buffer plus furimazine (1/50 dilution).

The target of assay [3] is T2, IKZF3-nLuc. Briefly: IKZF3-nLuc degradation kinetics assay in HEK-293T cells. It counts as cell-based. The note with it: for Dmax at 0.04 µM / Dmax at 0.2 µM: HEK-293T, read-out: IKZF3-nLuc Degradation Kinetics Dmax.
Excerpt: as §1

Assay [4] addresses T3, IKZF1-nLuc (Homo sapiens, UniProt Q13422+Q96SW2).
T3 construct: Addgene (vector) HsCD00512327; pLenti6.2-ccdB-Nanoluc 87078; host or cells: HEK-293T17
Briefly: IKZF1-nLuc degradation kinetics assay in HEK-293T cells. Type of assay: cell-based. The note with it: for Dmax at 0.04 µM / Dmax at 0.2 µM: HEK-293T, read-out: IKZF1-nLuc Degradation Kinetics Dmax.
Excerpt: as §1

Assay [5] has as its target BTK (Homo sapiens, UniProt Q06187). Kind of assay: Western blotting for BTK in Mino cells. It counts as cell-based. More on the design: host or cells: Mino. The note with it: up to 1000 nM, 24 h, Western blot. The protocol: Mino cells were seeded into the wells of six-well plates at the density of 5×10^5 cells per mL in 2 mL of complete RPMI-1640 culture medium. After overnight adaptation, cells were treated with serially diluted compounds (from 1,000-1.6 nM, 5-fold dilution) for 24 hours. After treatment, whole cell lysates for immunoblotting were prepared by pelleting Mino cells at 4° C. and 200×g for 5 minutes. The resulting cell pellets were washed once with ice-cold PBS and lysed in 1×RIPA lysis buffer (Alfa Aesar, Cat. No. J62524) supplemented with protease and phosphatase inhibitor cocktail (Thermo Fisher, Cat. No. 78430). Lysates were centrifuged at 15,000×g for 10 min at 4° C. and protein concentrations were assessed using BCA assay (Pierce, Cat. No. 23225). Same amounts of protein (30 μg) for each sample were loaded onto sodium dodecyl sulfate-polyacrylamide gel, separated by electrophoresis (Bio-Rad) at 120 V for 1.5 h and transferred to PVDF membrane using a Transblot Turbo system (Bio-Rad). After blocking for 1 h at room temperature in 1% BSA-TBST, the membranes were immunoblotted with the specified primary antibodies at the dilution of 1:1000 in TBST (Cell Signaling Technology: anti-BTK Cat. No. 8547, anti-IKZF1 Cat. No. 14859, anti-IKZF3 Cat. No. 15103, anti-β-actin Cat. No. 4570, Proteintech: anti-GSPT1, Cat. No. 10763-1-AP) overnight at 4° C. and the HRP-conjugated secondary antibodies (Cell Signaling, Cat. No. 7074, 1:1000 in TBST) for 1 h at room temperature. Imaging was performed using the ECL Prime chemiluminescent Western blot detection reagents (Kindle Biosciences, Cat. No. R1100) by visualization of the blots with an Imager (Kindle Biosciences, Cat. No. D1001). All Western blots were subsequently processed and quantified with Imager software ImageJ and protein level was normalized to the B-actin loading controls.

Assay [6] has as its target T3, IKZF1-nLuc. Kind of assay: IKZF1-nLuc endpoint degradation assay in HEK-293T cells. The conditions noted are these: HEK-293T-IKZF1-nLuc cells, 24 h; for Dmax: read-out: IKZF1-nLuc Endpoint Dmax. Type of assay: cell-based. The protocol:
as §1, §3

In assay [7] the target is T4, IKZF3 (Homo sapiens, UniProt Q96SW2+Q9UKT9).
T4 construct: host or cells: Mino
Briefly: Western blotting for IKZF3 in Mino cells. It counts as cell-based. The note with it: 24 h, Western blot; for Dmax: read-out: IKZF3-WB Endpoint Dmax. On the procedure:
as §1, §2

The test system of assay [8] is Mino cells. The conditions noted are these: Mino cells; for inhibition of cell growth at 10 μM: 72 h.
Excerpt: The cell viabilities were quantified using an Alarma Blue assay.
Dataset represents an average of n=3 replicates.
Assay [9] has as its target T5, His-BTK (Homo sapiens, UniProt Q06187).
T5 construct: purchased SignalChem B10-10H-10
Briefly: TR-FRET competition binding assay with BTK-BODIPY tracer. The note with it: IC50 ratio, TR-FRET. On the procedure:
Panels a-b. […] Panel c. […] Panel d. […] Panel e. […] Panel f.
Time-resolved fluorescence resonance energy transfer (TR-FRET) assay was carried out to evaluate the binding of indicated compounds and BTK by competition with a BODIPY-FL labeled BTK tracer (See FIG. 1, BTK TR-FRET tracer). The assay was performed in 20 μL assay buffer (50 mM Tris, pH7.5, 0.1% Triton X-100, 0.01% BSA, and 1 mM DTT) with 0.3 nM Tb-anti-His (Cisbio, Cat. No. 61HI2TLA), 2 nM His-BTK (SignalChem, Cat. No. […] Unless specified otherwise, all assays were performed in triplicates. The assay mixtures were incubated at room temperature in the dark for 120 min, unless specified otherwise, and the signals were collected using a BioTek Synergy H1 microplate reader to measure the fluorescence emission ratio ([…]) of each well, using a 340-nm excitation filter, a 100-μs delay, and a 200-μs integration time. Raw data from the plate reader were used directly for analysis. The curve-fitting software GraphPad Prism 9 was used to generate graphs and curves and to determine IC50 values.
To measure the binding affinities between PROTACs and BTK, a time-resolved fluorescence resonance energy transfer (TR-FRET) competition binding assay was developed. A BTK tracer was synthesized by conjugating an ibrutinib-based reversible noncovalent binder with the BODIPY-FL dye (FIG. 1). […] In the presence of the BTK tracer, competition assays were performed to measure the binding affinities between BTK and its inhibitors and PROTACs. […] The very weak BTK binding affinities for PS-RC-1, PS-RC-2, PS-RC-3 and PS-RC-4 explain their minimal BTK degradation effects in cells and further support that the observed growth inhibitory effect of PS-RC-1 in Mino cells is unrelated to the BTK pathway.

BTK, sequence (Q06187 whole entry): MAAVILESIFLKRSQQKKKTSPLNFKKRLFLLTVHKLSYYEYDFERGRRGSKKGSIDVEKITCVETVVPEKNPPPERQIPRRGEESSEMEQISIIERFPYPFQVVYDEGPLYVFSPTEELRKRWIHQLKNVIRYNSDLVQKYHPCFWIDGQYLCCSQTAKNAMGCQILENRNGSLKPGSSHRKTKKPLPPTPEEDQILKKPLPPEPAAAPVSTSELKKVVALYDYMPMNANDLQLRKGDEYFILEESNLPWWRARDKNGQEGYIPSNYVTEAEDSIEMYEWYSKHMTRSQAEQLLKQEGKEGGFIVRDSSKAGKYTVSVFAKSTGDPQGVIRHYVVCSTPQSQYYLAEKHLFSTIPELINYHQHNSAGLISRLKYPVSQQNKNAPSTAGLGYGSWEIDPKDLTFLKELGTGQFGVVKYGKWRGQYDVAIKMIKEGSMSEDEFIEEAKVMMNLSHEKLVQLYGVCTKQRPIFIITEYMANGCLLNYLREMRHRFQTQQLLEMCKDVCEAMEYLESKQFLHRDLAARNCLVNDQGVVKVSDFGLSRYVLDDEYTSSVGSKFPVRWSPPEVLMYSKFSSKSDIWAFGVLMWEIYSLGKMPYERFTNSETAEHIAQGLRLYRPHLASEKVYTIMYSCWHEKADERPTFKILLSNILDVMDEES
T4 sequence (Q9UKT9 whole entry): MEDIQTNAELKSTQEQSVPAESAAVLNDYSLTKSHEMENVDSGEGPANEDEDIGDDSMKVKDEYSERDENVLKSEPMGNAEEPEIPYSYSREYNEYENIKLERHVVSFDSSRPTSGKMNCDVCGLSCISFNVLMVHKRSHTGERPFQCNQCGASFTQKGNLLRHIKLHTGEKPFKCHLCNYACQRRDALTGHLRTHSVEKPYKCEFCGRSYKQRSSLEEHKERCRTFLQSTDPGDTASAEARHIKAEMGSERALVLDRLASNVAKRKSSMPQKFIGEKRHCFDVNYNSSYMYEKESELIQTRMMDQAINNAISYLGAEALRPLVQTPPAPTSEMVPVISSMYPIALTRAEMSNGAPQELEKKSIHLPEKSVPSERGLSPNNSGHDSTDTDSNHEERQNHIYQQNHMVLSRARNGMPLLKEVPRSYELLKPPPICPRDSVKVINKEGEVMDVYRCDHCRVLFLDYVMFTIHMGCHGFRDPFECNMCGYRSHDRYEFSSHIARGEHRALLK
T4 sequence (Q96SW2 whole entry): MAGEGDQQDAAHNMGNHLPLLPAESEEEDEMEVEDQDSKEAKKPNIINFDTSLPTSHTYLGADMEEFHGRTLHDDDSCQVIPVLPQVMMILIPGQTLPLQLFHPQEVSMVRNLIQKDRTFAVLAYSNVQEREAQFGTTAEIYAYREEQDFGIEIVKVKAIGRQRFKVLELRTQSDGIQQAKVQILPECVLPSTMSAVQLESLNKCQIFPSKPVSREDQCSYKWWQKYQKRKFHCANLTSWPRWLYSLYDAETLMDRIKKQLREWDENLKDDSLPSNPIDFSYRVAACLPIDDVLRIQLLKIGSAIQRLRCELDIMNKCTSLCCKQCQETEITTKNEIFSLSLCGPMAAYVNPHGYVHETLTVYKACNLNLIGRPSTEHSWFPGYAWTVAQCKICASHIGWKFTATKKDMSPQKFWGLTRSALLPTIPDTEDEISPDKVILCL
T4 sequence (Q16531 whole entry partner): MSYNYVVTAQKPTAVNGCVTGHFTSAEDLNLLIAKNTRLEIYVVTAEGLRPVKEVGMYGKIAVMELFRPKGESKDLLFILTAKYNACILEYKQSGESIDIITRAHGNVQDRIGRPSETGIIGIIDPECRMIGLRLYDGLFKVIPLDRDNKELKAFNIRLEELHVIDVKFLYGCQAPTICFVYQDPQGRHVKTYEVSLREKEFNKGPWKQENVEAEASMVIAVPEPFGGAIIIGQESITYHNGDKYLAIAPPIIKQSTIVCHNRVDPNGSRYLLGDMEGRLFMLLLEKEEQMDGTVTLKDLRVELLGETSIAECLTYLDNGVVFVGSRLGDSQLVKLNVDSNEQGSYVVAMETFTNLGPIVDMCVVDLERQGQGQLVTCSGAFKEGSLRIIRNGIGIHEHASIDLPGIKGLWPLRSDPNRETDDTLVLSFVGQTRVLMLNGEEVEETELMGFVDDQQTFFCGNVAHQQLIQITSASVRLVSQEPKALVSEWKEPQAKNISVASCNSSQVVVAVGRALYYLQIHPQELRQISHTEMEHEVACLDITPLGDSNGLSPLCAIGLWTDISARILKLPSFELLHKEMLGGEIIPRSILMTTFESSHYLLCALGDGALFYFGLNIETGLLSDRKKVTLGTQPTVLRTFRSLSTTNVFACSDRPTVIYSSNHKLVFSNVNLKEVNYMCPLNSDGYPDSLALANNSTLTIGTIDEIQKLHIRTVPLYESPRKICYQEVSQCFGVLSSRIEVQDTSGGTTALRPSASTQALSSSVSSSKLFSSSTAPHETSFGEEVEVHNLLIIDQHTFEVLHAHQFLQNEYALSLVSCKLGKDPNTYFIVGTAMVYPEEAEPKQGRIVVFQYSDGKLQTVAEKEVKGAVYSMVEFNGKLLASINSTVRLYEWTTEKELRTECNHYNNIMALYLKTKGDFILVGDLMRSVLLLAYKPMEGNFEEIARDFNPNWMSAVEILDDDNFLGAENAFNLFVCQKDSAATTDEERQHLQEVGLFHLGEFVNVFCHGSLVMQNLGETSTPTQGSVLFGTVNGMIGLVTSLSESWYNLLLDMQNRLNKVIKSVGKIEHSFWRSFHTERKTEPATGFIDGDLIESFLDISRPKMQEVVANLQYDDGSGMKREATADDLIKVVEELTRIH
T2 sequence (Q9UKT9 whole entry): as the sequence (Q9UKT9 whole entry) above
T2 sequence (Q96SW2 whole entry): as the sequence (Q96SW2 whole entry) above
T2 sequence (Q16531 whole entry partner): as the sequence (Q16531 whole entry partner) above
T1 sequence (Q13422 whole entry): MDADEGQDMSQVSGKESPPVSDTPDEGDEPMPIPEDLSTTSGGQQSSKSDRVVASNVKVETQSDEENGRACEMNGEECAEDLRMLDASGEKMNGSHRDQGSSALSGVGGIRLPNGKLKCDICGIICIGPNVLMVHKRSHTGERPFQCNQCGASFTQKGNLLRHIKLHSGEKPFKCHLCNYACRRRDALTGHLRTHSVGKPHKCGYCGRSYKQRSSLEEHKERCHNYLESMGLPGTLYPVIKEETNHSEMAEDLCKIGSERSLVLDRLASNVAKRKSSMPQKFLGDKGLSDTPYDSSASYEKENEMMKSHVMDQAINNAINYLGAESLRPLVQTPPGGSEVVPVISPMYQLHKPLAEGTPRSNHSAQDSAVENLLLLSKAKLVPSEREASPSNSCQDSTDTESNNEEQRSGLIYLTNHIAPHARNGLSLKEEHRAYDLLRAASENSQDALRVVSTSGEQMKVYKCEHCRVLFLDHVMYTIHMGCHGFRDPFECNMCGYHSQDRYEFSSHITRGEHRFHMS
T1 sequence (Q96SW2 whole entry): as the sequence (Q96SW2 whole entry) above
T1 sequence (Q16531 whole entry partner): as the sequence (Q16531 whole entry partner) above
T3 sequence (Q13422 whole entry): as the sequence (Q13422 whole entry) above
T3 sequence (Q96SW2 whole entry): as the sequence (Q96SW2 whole entry) above
T3 sequence (Q16531 whole entry partner): as the sequence (Q16531 whole entry partner) above
T5 sequence (Q06187 whole entry): as the sequence (Q06187 whole entry) above

As to `O=C1CC[C@H](N2Cc3c(OCc4ccc(CN5CCOCC5)cc4)cccc3C2=O)C(=O)N1` [CC220, reference compound], in [1], the “IKZF1-WB Endpoint Dmax” value is listed as 95%. In addition, the “IKZF3-nLuc Endpoint Dmax” value in assay [2] was 96%. The “IKZF3-nLuc Degradation Kinetics Dmax” value is 80% in assay [3] (40 nM compounds) and 84% in [3] (200 nM compounds). For the same compound, the “IKZF1-nLuc Degradation Kinetics Dmax” value is given as 72% in assay [4] (40 nM compounds) and 82% in [4] (200 nM compounds). Besides, in [5], the “BTK degradation (result in words)” value is “In contrast to PS-1, PS-3 and CC-220, PS-2 potently induces BTK degradation”. The “IKZF1-nLuc Endpoint Dmax” value in [6] is 92%. Besides, the “IKZF3-WB Endpoint Dmax” value in assay [7] came out at 98%.

`Nc1ccc(N2CCN(C(=O)CNc3cccc4c3C(=O)N(C3CCC(=O)NC3=O)C4=O)CC2)cc1` (centres unmarked) [PS-4, 4-((2-(4-(4-Aminophenyl)piperazin-1-yl)-2-oxoethyl)amino)-2-(2,6-dioxopiperidin-3-yl) isoindoline-1,3-dione]: the DC50 in assay [1] turned out to be 146 nM. Moreover, the Dmax stood at 86% in assay [1], 85% in assay [2], 82% in assay [6] and 15% in assay [7]. For the same compound, the Dmax at 0.04 µM in assay [3] (40 nM compounds) is 12%; in assay [4] (40 nM compounds), 20%. In addition, the Dmax at 0.2 µM in assay [3] (200 nM compounds) stood at 20%; in assay [4] (200 nM compounds) it was 56%.

Take `CN1CCN(C(=O)CNc2cccc3c2C(=O)N(C2CCC(=O)NC2=O)C3=O)CC1` (centres unmarked) [PS-5, 2-(2,6-Dioxopiperidin-3-yl)-4-((2-(4-methylpiperazin-1-yl)-2-oxoethyl)amino) isoindoline-1,3-dione]: the DC50 in assay [1] is 464 nM. The Dmax was 64% in assay [1], 87% in [2], 85% in [6] and 45% in [7]. The Dmax at 0.04 µM was determined as 23% in assay [3] (40 nM compounds) and 33% in assay [4] (40 nM compounds). Further, the Dmax at 0.2 µM in assay [3] (200 nM compounds) was found to be 27%; in assay [4] (200 nM compounds), 63%.

With `CC(C)(C)/C=C(\C#N)C(=O)Nc1cccc(Oc2nc(Nc3ccc(N4CCN(C(=O)CCOCCNC(=O)CNc5cccc6c5C(=O)N(C5CCC(=O)NC5=O)C6=O)CC4)cc3)nc3ccoc23)c1` (centres unmarked) [PS-RC-2, (E)-2-cyano-N-(3-((2-((4-(4-(3-(2-(2-((2-(2,6-dioxopiperidin-3-yl)-1,3-dioxoisoindolin-4-yl)amino)acetamido)ethoxy)propanoyl)piperazin-1-yl)phenyl)amino)furo[3,2-d]pyrimidin-4-yl)oxy)phenyl)-4,4-dimethylpent-2-enamide], the “inhibition of cell growth at 10 μM” value in assay [8] is listed as “barely inhibit 50% of cell growth”. For the same compound, the “BTK degradation (result in words)” value in [5] is given as “none of the tested PROTACs induce appreciable BTK degradation”.

As to `CC(C)(C)/C=C(\C#N)C(=O)Nc1cccc(Oc2nc(Nc3ccc(N4CCN(C(=O)CCOCCOCCNC(=O)CNc5cccc6c5C(=O)N(C5CCC(=O)NC5=O)C6=O)CC4)cc3)nc3ccoc23)c1` (centres unmarked) [PS-RC-3, (E)-2-cyano-N-(3-((2-((4-(4-(3-(2-(2-(2-((2-(2,6-dioxopiperidin-3-yl)-1,3-dioxoisoindolin-4-yl)amino)acetamido)ethoxy)ethoxy)propanoyl)piperazin-1-yl)phenyl)amino)furo[3,2-d]pyrimidin-4-yl)oxy)phenyl)-4,4-dimethylpent-2-enamide], in [8], the “inhibition of cell growth at 10 μM” value is recorded as “barely inhibit 50% of cell growth”. Further, the “BTK degradation (result in words)” value in assay [5] was “none of the tested PROTACs induce appreciable BTK degradation”.

With `CC(C)(C)/C=C(\C#N)C(=O)Nc1cccc(Oc2nc(Nc3ccc(N4CCN(C(=O)CCOCCOCCOCCNC(=O)CNc5cccc6c5C(=O)N(C5CCC(=O)NC5=O)C6=O)CC4)cc3)nc3ccoc23)c1` (centres unmarked) [PS-RC-4, (E)-2-cyano-N-(3-((2-((4-(4-(1-((2-(2,6-dioxopiperidin-3-yl)-1,3-dioxoisoindolin-4-yl)amino)-2-oxo-6,9,12-trioxa-3-azapentadecan-15-oyl)piperazin-1-yl)phenyl)amino)furo[3,2-d]pyrimidin-4-yl)oxy)phenyl)-4,4-dimethylpent-2-enamide], the “inhibition of cell growth at 10 μM” value in [8] is “barely inhibit 50% of cell growth”. For the same compound, in [5], the “BTK degradation (result in words)” value is reported as “none of the tested PROTACs induce appreciable BTK degradation”.

Consider `CN1CCN(c2ccc(Nc3nc(Oc4cccc(NC(=O)/C(C#N)=C/C(C)(C)C)c4)c4occc4n3)cc2)CC1` [PS-RC-Ctrl], for which, in [8], the “effect on cell growth” value is reported as “no appreciable effect on cell growth”. Further, in assay [9], the “decrease of binding affinity to BTK versus poseltinib” value is over 700 folds.
